Source: patent US6410810B1, “Handling method of (fluoroaryl) borane compound and preparing method of hydrocarbon solution” (Nippon Shokubai Co., Ltd., priority 1997, dated 2002)

Experimental: The cake is analyzed by ^19F-NMR. More specifically, ^19F-NMR is measured under predetermined conditions using p-fluorotoluene as an internal standard reagent. Then, a peak integral of a fluorine atom of p-fluorotoluene, and a peak integral of fluorine atoms at the ortho-position of a pentafluorophenyl group in tris(pentafluorophenyl)borane are computed from the resulting ^19F-NMR chart first, and thence a weight of tris(pentafluorophenyl)borane is computed using the above two peak integrals.
Here, 0.4963 g (purity: 99%, area ratio) of powders of tris(pentafluorophenyl)borane and 16.0878 g of IsoparE are charged to a vessel, in which the air has been displaced by a nitrogen gas satisfactorily, after which the mixture is stirred for 3 hours or so at 28° C. with stirring.
After the solution is cooled to room temperature, the supernatant is analyzed in the same manner as Example 1 above using ^19F-NMR.

## Fc1c(F)c(F)c(B(c2c(F)c(F)c(F)c(F)c2F)c2c(F)c(F)c(F)c(F)c2F)c(F)c1F [tris(pentafluorophenyl)borane]
  concentration of tris(pentafluorophenyl)borane in supernatant: 0.91 wt %
  solubility with respect to IsoparE: 0.91 wt %
0.4963 g powders in 16.0878 g IsoparE, heated
  temperature at which completely dissolved into IsoparE: 87 °C
0.4963 g powders in 16.0878 g IsoparE, stirred 3 hours or so at 28° C.
  dissolution into IsoparE: does not dissolve into IsoparE completely
3 wt %
  purity after dissolving with heating (stability): 83.0 % (area ratio)
IsoparE solution allowed to stand and cooled
  temperature at which the solution starts to crystallize on cooling: 63 °C
